Experimental data reported in patent US20110245284A1, “Alkoxy- and Alkylthio-Substituted Anilinopyrimidines” (Bayer CropScience AG, priority 2008, published 2011).

System: Sphaerotheca fuliginea
Assay: Sphaerotheca test (cucumber) / protective
Type: in vivo
Conditions: Podosphaera fuliginea, 168 h, active compound concentration 500 ppm, evaluation 7 days after inoculation, read-out: efficacy
Method: The plants are subsequently placed in a greenhouse at 70% relative atmospheric humidity and a temperature of 23° C.
In the case of `CSC(C)c1cccc(Nc2ncc(C(F)(F)F)c(NC3CCC3)n2)c1` (centres unmarked) [Example 18], the pest or weed control at 500 ppm is reported as ≥ 70%.
For `COCc1cccc(Nc2ncc(Cl)c(NCC(F)F)n2)c1` [Example 22], the pest or weed control at 500 ppm was ≥ 70%.
In the case of `CCCSc1cccc(Nc2ncc(Cl)c(NCC(F)(F)F)n2)c1` [Example 30], the pest or weed control at 500 ppm is reported as ≥ 70%.
In the case of `CCSCc1cccc(Nc2ncc(Cl)c(NCC(F)(F)F)n2)c1` [Example 32], the pest or weed control at 500 ppm is reported as ≥ 70%.
For `COCCOc1cccc(Nc2ncc(Br)c(NC3CC3)n2)c1` [Example 67], the pest or weed control at 500 ppm was ≥ 70%.
In the case of `CCN(C)c1nc(Nc2cccc(COC)c2)ncc1Cl` [Example 85], the pest or weed control at 500 ppm is reported as ≥ 70%.
With `COCc1cccc(Nc2ncc(Cl)c(NCC(C)C)n2)c1` [Example 148] the pest or weed control at 500 ppm was ≥ 70%.
With `CCCNc1nc(Nc2cccc(COC)c2)ncc1Cl` [Example 149] the pest or weed control at 500 ppm was ≥ 70%.
In the case of `CCSCc1cccc(Nc2ncc(Br)c(NC3CC3)n2)c1` [Example 218], the pest or weed control at 500 ppm is reported as ≥ 70%.
For `COCC(=O)c1cccc(Nc2ncc(C(F)(F)F)c(NC3CC3)n2)c1` [Example 225], the pest or weed control at 500 ppm was ≥ 70%.
For `COC(C)c1cccc(Nc2ncc(Cl)c(NC3CC3C)n2)c1` (centres unmarked) [Example 228], the pest or weed control at 500 ppm was ≥ 70%.

System: Leptosphaeria nodorum
Assay: Leptosphaeria nodorum test (wheat) / protective
Type: in vivo
Conditions: Parastagonospora nodorum, active compound concentration 500 ppm, evaluation 7-9 days after inoculation, read-out: efficacy
Method: Thereafter, the plants are placed in a greenhouse at 90% relative atmospheric humidity and a temperature of 22° C.
For `CSC(C)c1cccc(Nc2ncc(C(F)(F)F)c(NC3CCC3)n2)c1` (centres unmarked) [Example 18], the pest or weed control at 500 ppm was ≥ 70%.
For `COCc1cccc(Nc2ncc(Cl)c(NCC(F)F)n2)c1` [Example 22], the pest or weed control at 500 ppm was ≥ 70%.
With `COCCOc1cccc(Nc2ncc(Br)c(NC3CC3)n2)c1` [Example 67] the pest or weed control at 500 ppm was ≥ 70%.
For `CC[S+]([O-])C(C)c1cccc(Nc2ncc(Cl)c(NC3CC3)n2)c1` (centres unmarked) [Example 74], the pest or weed control at 500 ppm was ≥ 70%.
With `CCN(C)c1nc(Nc2cccc(COC)c2)ncc1Cl` [Example 85] the pest or weed control at 500 ppm was ≥ 70%.
For `CCCCSc1cccc(Nc2ncc(Br)c(NC3CCC3)n2)c1` [Example 104], the pest or weed control at 500 ppm was ≥ 70%.
In the case of `CCCS(=O)(=O)c1cccc(Nc2ncc(Br)c(NC3CC3)n2)c1` [Example 110], the pest or weed control at 500 ppm is reported as ≥ 70%.
In the case of `CCCCS(=O)(=O)c1cccc(Nc2ncc(Cl)c(NC3CC3)n2)c1` [Example 123], the pest or weed control at 500 ppm is reported as ≥ 70%.
With `CCCCSc1cccc(Nc2ncc(C(F)(F)F)c(NC3CCC3)n2)c1` [Example 128] the pest or weed control at 500 ppm was ≥ 70%.
In the case of `COCc1cccc(Nc2ncc(Cl)c(NCC(C)C)n2)c1` [Example 148], the pest or weed control at 500 ppm is reported as ≥ 70%.
For `CCCNc1nc(Nc2cccc(COC)c2)ncc1Cl` [Example 149], the pest or weed control at 500 ppm was ≥ 70%.
For `CCCSc1cccc(Nc2ncc(C(F)(F)F)c(NC3CCC3)n2)c1` [Example 155], the pest or weed control at 500 ppm was ≥ 70%.
With `CC(C)CS(=O)(=O)c1cccc(Nc2ncc(Cl)c(NC3CC3)n2)c1` [Example 161] the pest or weed control at 500 ppm was ≥ 70%.
With `CCCCS(=O)(=O)c1cccc(Nc2ncc(Cl)c(NC3CCC3)n2)c1` [Example 170] the pest or weed control at 500 ppm was ≥ 70%.
For `CCC(C)Sc1cccc(Nc2ncc(C(F)(F)F)c(NC3CC3)n2)c1` (centres unmarked) [Example 188], the pest or weed control at 500 ppm was ≥ 70%.
For `CCOCCSc1cccc(Nc2ncc(Cl)c(NC3CC3)n2)c1` [Example 189], the pest or weed control at 500 ppm was ≥ 70%.
With `CCCCS(=O)(=O)c1cccc(Nc2ncc(C(F)(F)F)c(NC3CCC3)n2)c1` [Example 202] the pest or weed control at 500 ppm was ≥ 70%.
In the case of `CCSCc1cccc(Nc2ncc(Br)c(NC3CC3)n2)c1` [Example 218], the pest or weed control at 500 ppm is reported as ≥ 70%.
In the case of `COCC(=O)c1cccc(Nc2ncc(C(F)(F)F)c(NC3CC3)n2)c1` [Example 225], the pest or weed control at 500 ppm is reported as ≥ 70%.
In the case of `COC(C)c1cccc(Nc2ncc(Cl)c(NC3CC3C)n2)c1` (centres unmarked) [Example 228], the pest or weed control at 500 ppm is reported as ≥ 70%.
For `COC(C)c1cccc(Nc2ncc(C(F)(F)F)c(NC3CC3C)n2)c1` (centres unmarked) [Example 229], the pest or weed control at 500 ppm was ≥ 70%.
In the case of `CCSc1cccc(Nc2ncc(C(F)(F)F)c(NC3CC(C)C3)n2)c1` (centres unmarked) [Example 234], the pest or weed control at 500 ppm is reported as ≥ 70%.
For `CCCSc1cccc(Nc2ncc(C(F)(F)F)c(NC3CC3C)n2)c1` (centres unmarked) [Example 235], the pest or weed control at 500 ppm was ≥ 70%.

System: not listed separately
Assay: logP by LC-MS on reversed-phase columns (C 18), method [b], acidic range pH 2.7
Type: physicochemical
Conditions: method [b], LC-MS, acidic range pH 2.7
Method: (§1) The logP values were determined in accordance with EEC Directive 79/831 Annex V.A8 by HPLC (High Performance Liquid Chromatography) on reversed-phase columns (C 18), using the methods below:
[b] The LC-MS determination in the acidic range is carried out at pH 2.7 using the mobile phases 0.1% aqueous formic acid and acetonitrile (contains 0.1% formic acid), linear gradient from 10% acetonitrile to 95% acetonitrile.
In the case of `CCCSc1cccc(Nc2ncc(Br)c(NC3CC3C)n2)c1` (centres unmarked) [Example 99], the log p is reported as 3.83[b].
For `COC(C)c1cccc(Nc2ncc(Br)c(NC3CC3C)n2)c1` (centres unmarked) [Example 226], the log p was 2.5[b].
In the case of `CCOC(C)c1cccc(Nc2ncc(Br)c(NC3CC3C)n2)c1` (centres unmarked) [Example 240], the log p is reported as 2.89[b].

Same assay, conditions: pH 2.7, log p
`CSC(C)c1cccc(Nc2ncc(C(F)(F)F)c(NC3CCC3)n2)c1` (centres unmarked) [Example 18] showed a chromatographic logP of 4.34.
In the case of `COCc1cccc(Nc2ncc(Cl)c(NCC(F)F)n2)c1` [Example 22], the chromatographic logP is reported as 1.99.
`CCCSc1cccc(Nc2ncc(Cl)c(NCC(F)(F)F)n2)c1` [Example 30] gave a chromatographic logP of 4.08.
For `CCSCc1cccc(Nc2ncc(Cl)c(NCC(F)(F)F)n2)c1` [Example 32], the chromatographic logP was 3.49.
Molecule `COCCOc1cccc(Nc2ncc(Br)c(NC3CC3)n2)c1` [Example 67] has a chromatographic logP of 1.95.
`CC[S+]([O-])C(C)c1cccc(Nc2ncc(Cl)c(NC3CC3)n2)c1` (centres unmarked) [Example 74] gave a chromatographic logP of 1.48.
`CCN(C)c1nc(Nc2cccc(COC)c2)ncc1Cl` [Example 85] showed a chromatographic logP of 2.14.
In the case of `CCCCSc1cccc(Nc2ncc(Br)c(NC3CCC3)n2)c1` [Example 104], the chromatographic logP is reported as 4.57.
`CCCS(=O)(=O)c1cccc(Nc2ncc(Br)c(NC3CC3)n2)c1` [Example 110] gave a chromatographic logP of 2.43.
With `CCCCS(=O)(=O)c1cccc(Nc2ncc(Cl)c(NC3CC3)n2)c1` [Example 123] the chromatographic logP was 2.65.
Molecule `CCCCSc1cccc(Nc2ncc(C(F)(F)F)c(NC3CCC3)n2)c1` [Example 128] has a chromatographic logP of 5.55.
For `COCc1cccc(Nc2ncc(Cl)c(NCC(C)C)n2)c1` [Example 148], the chromatographic logP was 2.08.
For `CCCNc1nc(Nc2cccc(COC)c2)ncc1Cl` [Example 149], the chromatographic logP was 1.72.
For `CCCSc1cccc(Nc2ncc(C(F)(F)F)c(NC3CCC3)n2)c1` [Example 155], the chromatographic logP was 5.01.
In the case of `CC(C)CS(=O)(=O)c1cccc(Nc2ncc(Cl)c(NC3CC3)n2)c1` [Example 161], the chromatographic logP is reported as 2.64.
Molecule `CCCCS(=O)(=O)c1cccc(Nc2ncc(Cl)c(NC3CCC3)n2)c1` [Example 170] has a chromatographic logP of 3.09.
`CCC(C)Sc1cccc(Nc2ncc(C(F)(F)F)c(NC3CC3)n2)c1` (centres unmarked) [Example 188] showed a chromatographic logP of 4.9.
Molecule `CCOCCSc1cccc(Nc2ncc(Cl)c(NC3CC3)n2)c1` [Example 189] has a chromatographic logP of 2.7.
Work on `CCCCS(=O)(=O)c1cccc(Nc2ncc(C(F)(F)F)c(NC3CCC3)n2)c1` [Example 202] yielded a chromatographic logP of 3.91.
With `CCSCc1cccc(Nc2ncc(Br)c(NC3CC3)n2)c1` [Example 218] the chromatographic logP was 2.79.
`COCC(=O)c1cccc(Nc2ncc(C(F)(F)F)c(NC3CC3)n2)c1` [Example 225] gave a chromatographic logP of 2.54.
`COC(C)c1cccc(Nc2ncc(Cl)c(NC3CC3C)n2)c1` (centres unmarked) [Example 228] gave a chromatographic logP of 0.95.
`COC(C)c1cccc(Nc2ncc(C(F)(F)F)c(NC3CC3C)n2)c1` (centres unmarked) [Example 229] showed a chromatographic logP of 3.61.
Molecule `CCSc1cccc(Nc2ncc(C(F)(F)F)c(NC3CC(C)C3)n2)c1` (centres unmarked) [Example 234] has a chromatographic logP of 4.09.
In the case of `CCCSc1cccc(Nc2ncc(C(F)(F)F)c(NC3CC3C)n2)c1` (centres unmarked) [Example 235], the chromatographic logP is reported as 4.9.

System: not listed separately
Assay: logP by LC-MS on reversed-phase columns (C 18), method [c], neutral range pH 7.8
Type: physicochemical
Conditions: method [c], LC-MS, neutral range pH 7.8
Method: as §1
[c] The LC-MS determination in the neutral range is carried out at pH 7.8 using the mobile phases 0.001 molar aqueous ammonium bicarbonate solution and acetonitrile, linear gradient from 10% acetonitrile to 95% acetonitrile.
In the case of `CCCSc1cccc(Nc2ncc(Br)c(NC3CC3C)n2)c1` (centres unmarked) [Example 99], the log p is reported as 5.09[c];.
For `COC(C)c1cccc(Nc2ncc(Br)c(NC3CC3C)n2)c1` (centres unmarked) [Example 226], the log p was 3.98[c];.
For `CCOC(C)c1cccc(Nc2ncc(Br)c(NC3CC3C)n2)c1` (centres unmarked) [Example 240], the log p was 4.42[c];.

Same assay, conditions: pH 7.8
With `CC[S+]([O-])C(C)c1cccc(Nc2ncc(Cl)c(NC3CC3)n2)c1` (centres unmarked) [Example 74] the chromatographic logP was 2.16.
Molecule `CCN(C)c1nc(Nc2cccc(COC)c2)ncc1Cl` [Example 85] has a chromatographic logP of 3.7.
In the case of `CCCCSc1cccc(Nc2ncc(Br)c(NC3CCC3)n2)c1` [Example 104], the chromatographic logP is reported as 5.71.
With `CCCS(=O)(=O)c1cccc(Nc2ncc(Br)c(NC3CC3)n2)c1` [Example 110] the chromatographic logP was 2.99.
In the case of `CCCCS(=O)(=O)c1cccc(Nc2ncc(Cl)c(NC3CC3)n2)c1` [Example 123], the chromatographic logP is reported as 3.18.
With `CCCCSc1cccc(Nc2ncc(C(F)(F)F)c(NC3CCC3)n2)c1` [Example 128] the chromatographic logP was 5.78.
In the case of `CCCSc1cccc(Nc2ncc(C(F)(F)F)c(NC3CCC3)n2)c1` [Example 155], the chromatographic logP is reported as 5.43.
In the case of `CC(C)CS(=O)(=O)c1cccc(Nc2ncc(Cl)c(NC3CC3)n2)c1` [Example 161], the chromatographic logP is reported as 3.23.
For `CCCCS(=O)(=O)c1cccc(Nc2ncc(Cl)c(NC3CCC3)n2)c1` [Example 170], the chromatographic logP was 3.69.
`CCC(C)Sc1cccc(Nc2ncc(C(F)(F)F)c(NC3CC3)n2)c1` (centres unmarked) [Example 188] gave a chromatographic logP of 5.01.
With `CCOCCSc1cccc(Nc2ncc(Cl)c(NC3CC3)n2)c1` [Example 189] the chromatographic logP was 3.76.
With `CCCCS(=O)(=O)c1cccc(Nc2ncc(C(F)(F)F)c(NC3CCC3)n2)c1` [Example 202] the chromatographic logP was 4.01.
`COC(C)c1cccc(Nc2ncc(C(F)(F)F)c(NC3CC3C)n2)c1` (centres unmarked) [Example 229] showed a chromatographic logP of 4.1.
For `CCSc1cccc(Nc2ncc(C(F)(F)F)c(NC3CC(C)C3)n2)c1` (centres unmarked) [Example 234], the chromatographic logP was 5.34.
`CCCSc1cccc(Nc2ncc(C(F)(F)F)c(NC3CC3C)n2)c1` (centres unmarked) [Example 235] showed a chromatographic logP of 5.23.
